# Measurements: patent US20240400577A1, “MODULATORS OF PROTEIN KINASES” (VIBLIOME THERAPEUTICS, LLC, priority 2021, published 2024)
# How the values were obtained:
# Assay in all cases: Kinase panel enzymatic inhibition assay (Nanosyn)
# Type in all cases: biochemical
# Conditions in all cases: compound 5 μM; ATP at Km; 30-minute pre-incubation
# KDR = molecular target: T1, KDR (Homo sapiens, UniProt P35968)
# T1 construct: purchased Nanosyn (contract screening)
# How it was run: (§1)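 Read-out is percent inhibition or IC50, obtained by mobility shift, ADP detection or time-resolved fluorescence detection. Each kinase was run with ATP at its Km, and compound at 5 μM was pre-incubated for 30 minutes.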
# PIKfyve = molecular target: T2, PIKfyve (Homo sapiens, UniProt Q9Y2I7)
# T2 construct: Nanosyn (contract laboratory that ran the panel)
# T2 sequence (Q9Y2I7 whole entry): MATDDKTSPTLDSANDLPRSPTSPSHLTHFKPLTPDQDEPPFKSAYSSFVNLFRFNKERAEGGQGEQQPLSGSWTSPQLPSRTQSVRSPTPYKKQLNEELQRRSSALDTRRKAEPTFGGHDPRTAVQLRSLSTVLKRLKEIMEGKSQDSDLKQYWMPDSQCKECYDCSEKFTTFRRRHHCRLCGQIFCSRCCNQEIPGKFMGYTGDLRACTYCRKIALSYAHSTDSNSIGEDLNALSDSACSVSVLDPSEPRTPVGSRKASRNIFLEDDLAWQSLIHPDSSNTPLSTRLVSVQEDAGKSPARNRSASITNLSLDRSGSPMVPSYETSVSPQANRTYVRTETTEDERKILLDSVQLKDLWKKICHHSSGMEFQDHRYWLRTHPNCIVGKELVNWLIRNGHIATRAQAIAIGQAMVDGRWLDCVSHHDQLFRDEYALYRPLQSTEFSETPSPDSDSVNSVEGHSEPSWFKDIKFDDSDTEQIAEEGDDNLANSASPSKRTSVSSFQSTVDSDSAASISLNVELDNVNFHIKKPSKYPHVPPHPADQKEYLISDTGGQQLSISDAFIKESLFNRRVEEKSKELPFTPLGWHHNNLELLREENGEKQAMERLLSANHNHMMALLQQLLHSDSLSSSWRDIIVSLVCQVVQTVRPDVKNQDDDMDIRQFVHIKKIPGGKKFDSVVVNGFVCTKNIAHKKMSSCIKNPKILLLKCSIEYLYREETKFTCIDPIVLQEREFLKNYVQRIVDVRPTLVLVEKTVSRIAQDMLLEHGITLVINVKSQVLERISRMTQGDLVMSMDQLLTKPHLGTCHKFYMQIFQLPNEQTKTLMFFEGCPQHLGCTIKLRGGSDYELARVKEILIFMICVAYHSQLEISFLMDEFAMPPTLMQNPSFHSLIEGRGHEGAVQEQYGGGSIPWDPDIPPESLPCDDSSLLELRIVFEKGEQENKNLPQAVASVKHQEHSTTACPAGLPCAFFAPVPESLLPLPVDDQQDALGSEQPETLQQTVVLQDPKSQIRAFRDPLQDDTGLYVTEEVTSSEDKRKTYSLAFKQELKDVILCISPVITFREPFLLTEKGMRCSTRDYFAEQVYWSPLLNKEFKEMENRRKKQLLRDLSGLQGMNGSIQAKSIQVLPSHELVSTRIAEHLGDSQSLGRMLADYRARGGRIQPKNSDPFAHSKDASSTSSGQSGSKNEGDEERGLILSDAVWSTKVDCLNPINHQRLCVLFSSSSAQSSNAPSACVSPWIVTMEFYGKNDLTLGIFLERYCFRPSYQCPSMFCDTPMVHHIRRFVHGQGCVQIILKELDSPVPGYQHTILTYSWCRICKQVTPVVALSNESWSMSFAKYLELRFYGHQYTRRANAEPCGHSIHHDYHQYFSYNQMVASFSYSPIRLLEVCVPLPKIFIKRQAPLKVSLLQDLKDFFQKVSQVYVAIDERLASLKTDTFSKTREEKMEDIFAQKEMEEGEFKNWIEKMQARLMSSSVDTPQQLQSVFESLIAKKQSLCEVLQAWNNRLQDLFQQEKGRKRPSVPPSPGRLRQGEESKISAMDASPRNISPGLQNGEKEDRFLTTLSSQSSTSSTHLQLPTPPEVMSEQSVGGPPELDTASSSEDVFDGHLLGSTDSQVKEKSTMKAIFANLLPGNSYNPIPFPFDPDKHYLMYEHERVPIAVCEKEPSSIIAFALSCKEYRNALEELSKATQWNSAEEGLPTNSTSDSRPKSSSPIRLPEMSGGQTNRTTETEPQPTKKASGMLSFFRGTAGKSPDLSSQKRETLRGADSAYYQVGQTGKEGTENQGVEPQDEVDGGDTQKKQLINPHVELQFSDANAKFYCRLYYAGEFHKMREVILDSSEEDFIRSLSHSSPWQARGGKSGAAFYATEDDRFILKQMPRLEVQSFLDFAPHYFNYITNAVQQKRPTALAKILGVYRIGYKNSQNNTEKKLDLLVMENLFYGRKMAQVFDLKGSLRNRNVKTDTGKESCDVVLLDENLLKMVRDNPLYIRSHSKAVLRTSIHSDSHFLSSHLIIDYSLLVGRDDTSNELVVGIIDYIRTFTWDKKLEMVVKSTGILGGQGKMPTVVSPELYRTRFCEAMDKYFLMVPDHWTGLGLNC
# How it was run: as §1
# SRC = molecular target: T3, SRC (Homo sapiens, UniProt P12931)
# T3 construct: Nanosyn (contract laboratory that ran the panel)
# How it was run: as §1
# MNK2 = molecular target: T4, MNK2 (Homo sapiens, UniProt Q9HBH9)
# T4 construct: Nanosyn (contract laboratory that ran the panel)
# How it was run: as §1
# BLK = molecular target: T5, BLK (Homo sapiens, UniProt P51451)
# T5 construct: purchased Nanosyn (contract screening)
# T5 sequence (P51451 whole entry): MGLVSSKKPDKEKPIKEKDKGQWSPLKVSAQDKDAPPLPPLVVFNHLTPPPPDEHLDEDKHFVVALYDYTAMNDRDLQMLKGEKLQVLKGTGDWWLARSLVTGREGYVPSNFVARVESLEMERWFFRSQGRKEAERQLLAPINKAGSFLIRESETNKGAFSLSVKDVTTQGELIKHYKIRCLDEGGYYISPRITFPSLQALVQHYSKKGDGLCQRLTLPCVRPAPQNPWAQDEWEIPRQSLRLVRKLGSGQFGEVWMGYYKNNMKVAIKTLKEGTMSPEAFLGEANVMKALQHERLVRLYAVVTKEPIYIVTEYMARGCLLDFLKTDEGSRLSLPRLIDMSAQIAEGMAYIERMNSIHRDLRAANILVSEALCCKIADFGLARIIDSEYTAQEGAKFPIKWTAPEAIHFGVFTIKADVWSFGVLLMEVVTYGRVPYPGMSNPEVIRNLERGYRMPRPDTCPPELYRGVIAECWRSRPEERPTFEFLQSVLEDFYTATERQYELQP
# How it was run: as §1
# TNIK = molecular target: T6, TNIK (Homo sapiens, UniProt Q9UKE5)
# T6 construct: Nanosyn (contract laboratory that ran the panel)
# T6 sequence (Q9UKE5 whole entry): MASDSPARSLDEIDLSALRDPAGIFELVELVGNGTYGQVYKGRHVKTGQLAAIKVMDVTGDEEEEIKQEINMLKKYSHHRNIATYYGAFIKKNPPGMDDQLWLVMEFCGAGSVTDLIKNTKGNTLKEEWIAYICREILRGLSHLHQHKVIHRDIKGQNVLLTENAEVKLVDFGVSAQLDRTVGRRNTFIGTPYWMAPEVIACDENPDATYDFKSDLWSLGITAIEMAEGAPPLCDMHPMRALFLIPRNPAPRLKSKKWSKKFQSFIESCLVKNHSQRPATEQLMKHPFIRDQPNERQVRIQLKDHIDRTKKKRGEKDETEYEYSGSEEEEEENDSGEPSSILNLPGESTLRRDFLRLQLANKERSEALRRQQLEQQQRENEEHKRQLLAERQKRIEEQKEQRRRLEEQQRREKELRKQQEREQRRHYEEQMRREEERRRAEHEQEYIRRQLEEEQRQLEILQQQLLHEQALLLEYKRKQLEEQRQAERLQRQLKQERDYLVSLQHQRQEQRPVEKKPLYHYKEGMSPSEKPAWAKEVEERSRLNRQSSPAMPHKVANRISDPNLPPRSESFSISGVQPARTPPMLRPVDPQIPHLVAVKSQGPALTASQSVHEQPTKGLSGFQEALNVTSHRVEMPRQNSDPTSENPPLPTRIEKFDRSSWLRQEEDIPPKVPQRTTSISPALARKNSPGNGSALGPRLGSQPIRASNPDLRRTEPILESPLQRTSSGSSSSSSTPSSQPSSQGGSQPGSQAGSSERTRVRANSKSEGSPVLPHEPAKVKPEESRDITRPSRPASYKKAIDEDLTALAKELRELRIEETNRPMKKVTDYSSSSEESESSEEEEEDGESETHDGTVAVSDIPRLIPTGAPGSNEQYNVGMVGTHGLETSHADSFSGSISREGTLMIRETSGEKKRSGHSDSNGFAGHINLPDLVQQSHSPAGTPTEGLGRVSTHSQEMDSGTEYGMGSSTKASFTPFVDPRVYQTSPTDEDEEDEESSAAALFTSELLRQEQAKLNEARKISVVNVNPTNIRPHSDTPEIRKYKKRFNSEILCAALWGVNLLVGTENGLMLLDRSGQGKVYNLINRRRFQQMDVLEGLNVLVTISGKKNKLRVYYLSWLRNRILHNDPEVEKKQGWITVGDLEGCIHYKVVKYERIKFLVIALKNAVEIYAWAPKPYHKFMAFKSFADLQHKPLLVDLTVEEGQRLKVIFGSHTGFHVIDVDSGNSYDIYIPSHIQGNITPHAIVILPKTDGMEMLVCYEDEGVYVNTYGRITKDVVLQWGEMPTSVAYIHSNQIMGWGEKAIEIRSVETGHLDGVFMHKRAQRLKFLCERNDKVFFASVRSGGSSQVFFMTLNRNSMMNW
# How it was run: as §1
# ZAK = molecular target: T7, ZAK (Homo sapiens, UniProt Q9NYL2)
# T7 construct: Nanosyn (contract laboratory that ran the panel)
# T7 sequence (Q9NYL2 whole entry): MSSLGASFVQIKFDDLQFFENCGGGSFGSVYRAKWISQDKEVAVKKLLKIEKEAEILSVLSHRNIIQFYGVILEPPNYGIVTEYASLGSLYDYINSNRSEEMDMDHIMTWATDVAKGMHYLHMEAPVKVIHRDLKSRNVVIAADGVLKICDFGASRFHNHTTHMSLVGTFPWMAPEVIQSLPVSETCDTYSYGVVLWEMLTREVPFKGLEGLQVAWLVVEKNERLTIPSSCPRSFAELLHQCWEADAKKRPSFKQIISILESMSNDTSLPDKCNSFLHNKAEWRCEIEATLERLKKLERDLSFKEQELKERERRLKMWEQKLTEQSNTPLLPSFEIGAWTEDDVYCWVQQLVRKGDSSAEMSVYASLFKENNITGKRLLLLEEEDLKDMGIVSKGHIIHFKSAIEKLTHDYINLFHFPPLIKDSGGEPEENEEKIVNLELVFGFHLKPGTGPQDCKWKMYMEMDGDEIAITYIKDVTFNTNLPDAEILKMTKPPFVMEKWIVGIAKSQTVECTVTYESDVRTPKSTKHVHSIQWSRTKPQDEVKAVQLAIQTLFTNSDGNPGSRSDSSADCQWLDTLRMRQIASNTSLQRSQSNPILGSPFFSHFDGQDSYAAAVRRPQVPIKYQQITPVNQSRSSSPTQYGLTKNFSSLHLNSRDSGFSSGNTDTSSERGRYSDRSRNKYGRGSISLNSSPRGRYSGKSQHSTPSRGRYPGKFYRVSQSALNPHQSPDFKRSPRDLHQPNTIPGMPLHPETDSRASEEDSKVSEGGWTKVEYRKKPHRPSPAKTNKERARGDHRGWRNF
# How it was run: as §1
# EPH = tested on: EPH
# How it was run: as §1
# MAP4K2 = molecular target: T8, MAP4K2 (Homo sapiens, UniProt Q12851)
# T8 construct: purchased Nanosyn (contract screening)
# T8 sequence (Q12851 1-820): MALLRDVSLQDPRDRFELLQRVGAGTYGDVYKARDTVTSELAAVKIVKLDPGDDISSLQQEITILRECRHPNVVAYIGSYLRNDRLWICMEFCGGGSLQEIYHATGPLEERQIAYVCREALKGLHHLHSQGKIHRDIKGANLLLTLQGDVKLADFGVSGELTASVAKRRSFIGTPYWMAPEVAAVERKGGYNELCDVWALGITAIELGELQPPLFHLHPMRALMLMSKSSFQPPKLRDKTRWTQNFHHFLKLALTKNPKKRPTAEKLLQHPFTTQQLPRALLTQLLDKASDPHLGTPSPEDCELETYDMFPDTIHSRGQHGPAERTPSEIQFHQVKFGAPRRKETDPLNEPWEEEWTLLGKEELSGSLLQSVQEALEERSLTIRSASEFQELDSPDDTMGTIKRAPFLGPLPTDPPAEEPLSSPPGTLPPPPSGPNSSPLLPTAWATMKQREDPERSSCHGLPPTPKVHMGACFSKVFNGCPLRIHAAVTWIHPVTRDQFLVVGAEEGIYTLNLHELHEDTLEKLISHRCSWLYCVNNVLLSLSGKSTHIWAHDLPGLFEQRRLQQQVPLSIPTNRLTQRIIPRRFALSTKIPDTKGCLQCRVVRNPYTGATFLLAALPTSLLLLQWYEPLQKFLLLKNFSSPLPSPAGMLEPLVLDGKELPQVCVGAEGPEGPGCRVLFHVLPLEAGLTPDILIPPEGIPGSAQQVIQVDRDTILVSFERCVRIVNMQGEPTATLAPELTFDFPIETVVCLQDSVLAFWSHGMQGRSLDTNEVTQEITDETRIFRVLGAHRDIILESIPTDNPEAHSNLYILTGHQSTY
# How it was run: as §1
# HCK = molecular target: T9, HCK (Homo sapiens, UniProt P08631)
# T9 construct: purchased Nanosyn (contract screening)
# How it was run: as §1
# p38b = molecular target: T10, p38b (Homo sapiens, UniProt Q15759)
# T10 construct: Nanosyn (contract laboratory that ran the panel)
# T10 sequence (Q15759 whole entry): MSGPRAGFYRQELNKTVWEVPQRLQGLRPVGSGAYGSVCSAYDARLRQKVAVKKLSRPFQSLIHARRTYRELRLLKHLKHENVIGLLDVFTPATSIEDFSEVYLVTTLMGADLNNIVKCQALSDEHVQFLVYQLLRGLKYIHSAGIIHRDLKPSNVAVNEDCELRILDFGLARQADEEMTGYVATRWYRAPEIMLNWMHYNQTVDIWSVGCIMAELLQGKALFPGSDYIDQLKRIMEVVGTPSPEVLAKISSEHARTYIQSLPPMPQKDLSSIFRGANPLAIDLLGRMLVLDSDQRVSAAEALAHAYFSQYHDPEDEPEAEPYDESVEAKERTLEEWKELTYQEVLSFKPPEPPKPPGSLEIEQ
# How it was run: as §1
# DDR1 = molecular target: T11, DDR1 (Homo sapiens, UniProt Q08345)
# T11 construct: purchased Nanosyn (contract screening)
# How it was run: as §1
# SGK2 = molecular target: T12, SGK2 (Homo sapiens, UniProt Q9HBY8)
# T12 construct: Nanosyn (contract laboratory that ran the panel)
# T12 sequence (Q9HBY8 1-367): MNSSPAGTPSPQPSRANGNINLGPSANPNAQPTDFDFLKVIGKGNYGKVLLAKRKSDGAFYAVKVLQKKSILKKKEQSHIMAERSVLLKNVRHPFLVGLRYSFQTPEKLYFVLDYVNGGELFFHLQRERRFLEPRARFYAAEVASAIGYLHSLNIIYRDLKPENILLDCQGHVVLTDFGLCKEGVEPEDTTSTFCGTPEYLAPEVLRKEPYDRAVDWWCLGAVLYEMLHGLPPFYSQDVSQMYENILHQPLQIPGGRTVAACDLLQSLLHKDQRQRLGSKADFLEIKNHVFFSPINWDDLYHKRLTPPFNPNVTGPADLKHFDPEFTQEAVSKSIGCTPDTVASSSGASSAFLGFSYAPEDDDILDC
# How it was run: as §1
# PDGFRb = molecular target: T13, PDGFRb (Homo sapiens, UniProt P09619)
# T13 construct: Nanosyn (contract laboratory that ran the panel)
# How it was run: as §1
# Abl2 = molecular target: T14, Abl2 (Homo sapiens, UniProt P42684)
# T14 construct: purchased Nanosyn (contract screening)
# How it was run: as §1
# SGK3 = molecular target: T15, SGK3 (Homo sapiens, UniProt Q96BR1)
# T15 construct: Nanosyn (contract laboratory that ran the panel)
# T15 sequence (Q96BR1 1-496): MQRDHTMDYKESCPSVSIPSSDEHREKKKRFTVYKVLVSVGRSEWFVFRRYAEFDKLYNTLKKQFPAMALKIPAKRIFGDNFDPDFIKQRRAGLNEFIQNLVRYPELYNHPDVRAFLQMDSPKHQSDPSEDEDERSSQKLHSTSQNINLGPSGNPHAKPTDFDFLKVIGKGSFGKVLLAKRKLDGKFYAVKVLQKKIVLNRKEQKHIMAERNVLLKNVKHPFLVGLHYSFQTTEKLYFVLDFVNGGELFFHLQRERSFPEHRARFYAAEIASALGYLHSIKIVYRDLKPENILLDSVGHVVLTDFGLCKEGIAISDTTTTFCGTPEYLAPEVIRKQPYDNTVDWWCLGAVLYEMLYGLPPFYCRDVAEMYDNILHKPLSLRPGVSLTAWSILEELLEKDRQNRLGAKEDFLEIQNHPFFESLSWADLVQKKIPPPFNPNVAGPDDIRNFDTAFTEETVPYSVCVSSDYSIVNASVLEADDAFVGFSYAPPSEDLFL
# How it was run: as §1
smiles,measurement,setting,value
"Cc1ccc(NC(=O)c2cc(S(C)(=O)=O)n(-c3ccc(F)cc3)n2)cc1Nc1ccc2ncn(C)c(=O)c2c1 [Ex4, 1-(4-fluorophenyl)-N-(4-methyl-3-((3-methyl-4-oxo-3,4-dihydroquinazolin-6-yl)amino)phenyl)-5-(methylsulfonyl)-1H-pyrazole-3-carboxamide]",inhibition at 5 µM,KDR,< 79%
same,inhibition at 5 µM,PIKfyve,< 79%
same,inhibition at 5 µM,SRC,< 79%
same,inhibition at 5 µM,MNK2,< 79%
same,inhibition at 5 µM,BLK,< 79%
same,inhibition at 5 µM,TNIK,< 79%
same,inhibition at 5 µM,ZAK,< 79%
same,"kinase inhibition, EPH",EPH,D (D=79% and less)
same,inhibition at 5 µM,MAP4K2,< 79%
same,inhibition at 5 µM,HCK,< 79%
same,inhibition at 5 µM,p38b,< 79%
same,inhibition at 5 µM,DDR1,< 79%
same,inhibition at 5 µM,SGK2,< 79%
same,inhibition at 5 µM,PDGFRb,80 to 89%
same,inhibition at 5 µM,Abl2,< 79%
same,inhibition at 5 µM,SGK3,< 79%
"Cc1ccc(NC(=O)c2cc([S+](C)[O-])n(-c3ccc(F)cc3)n2)cc1Nc1ccc2ncn(C)c(=O)c2c1 (stereo not shown) [Ex5, 1-(4-fluorophenyl)-N-(4-methyl-3-((3-methyl-4-oxo-3,4-dihydroquinazolin-6-yl)amino)phenyl)-5-(methylsulfinyl)-1H-pyrazole-3-carboxamide]",inhibition at 5 µM,KDR,< 79%
same,inhibition at 5 µM,PIKfyve,< 79%
same,inhibition at 5 µM,SRC,< 79%
same,inhibition at 5 µM,MNK2,< 79%
same,inhibition at 5 µM,BLK,< 79%
same,inhibition at 5 µM,TNIK,< 79%
same,inhibition at 5 µM,ZAK,< 79%
same,"kinase inhibition, EPH",EPH,D (D=79% and less)
same,inhibition at 5 µM,MAP4K2,< 79%
same,inhibition at 5 µM,HCK,< 79%
same,inhibition at 5 µM,p38b,80 to 89%
same,inhibition at 5 µM,DDR1,90 to 94%
same,inhibition at 5 µM,SGK2,< 79%
same,inhibition at 5 µM,PDGFRb,< 79%
same,inhibition at 5 µM,Abl2,< 79%
same,inhibition at 5 µM,SGK3,< 79%
"Cc1ccc(NC(=O)c2cc([S+](C)[O-])n(-c3ccc(F)cc3)n2)cc1C#Cc1cnc2cccnn12 (stereo not shown) [Ex6, 1-(4-fluorophenyl)-N-(3-(imidazo[1,2-b]pyridazin-3-ylethynyl)-4-methylphenyl)-5-(methylsulfinyl)-1H-pyrazole-3-carboxamide]",inhibition at 5 µM,KDR,< 79%
same,inhibition at 5 µM,PIKfyve,90 to 94%
same,inhibition at 5 µM,SRC,90 to 94%
same,inhibition at 5 µM,MNK2,< 79%
same,inhibition at 5 µM,BLK,80 to 89%
same,inhibition at 5 µM,TNIK,< 79%
same,inhibition at 5 µM,ZAK,< 79%
same,"kinase inhibition, EPH",EPH,D (D=79% and less)
same,inhibition at 5 µM,MAP4K2,< 79%
same,inhibition at 5 µM,HCK,≥ 95%
same,inhibition at 5 µM,p38b,80 to 89%
same,inhibition at 5 µM,DDR1,≥ 95%
same,inhibition at 5 µM,SGK2,90 to 94%
same,inhibition at 5 µM,PDGFRb,≥ 95%
same,inhibition at 5 µM,Abl2,≥ 95%
same,inhibition at 5 µM,SGK3,< 79%
"CNC(=O)c1cc(Oc2ccc(F)c(NC(=O)c3cc([S+](C)[O-])n(-c4ccc(F)cc4)n3)c2)ccn1 (stereo not shown) [Ex7, 4-(4-fluoro-3-(1-(4-fluorophenyl)-5-(methylsulfinyl)-1H-pyrazole-3-carboxamido)phenoxy)-N-methylpicolinamide]",inhibition at 5 µM,KDR,< 79%
same,inhibition at 5 µM,PIKfyve,< 79%
same,inhibition at 5 µM,SRC,< 79%
same,inhibition at 5 µM,MNK2,< 79%
same,inhibition at 5 µM,BLK,< 79%
same,inhibition at 5 µM,TNIK,< 79%
same,inhibition at 5 µM,ZAK,< 79%
same,"kinase inhibition, EPH",EPH,D (D=79% and less)
same,inhibition at 5 µM,MAP4K2,< 79%
same,inhibition at 5 µM,HCK,< 79%
same,inhibition at 5 µM,p38b,< 79%
same,inhibition at 5 µM,DDR1,< 79%
same,inhibition at 5 µM,SGK2,< 79%
same,inhibition at 5 µM,PDGFRb,< 79%
same,inhibition at 5 µM,Abl2,< 79%
same,inhibition at 5 µM,SGK3,< 79%
"CSc1cc(C(=O)Nc2cc(Oc3ccnc(C(=O)NC4CNC4)c3)ccc2F)nn1-c1ccc(F)cc1 [Ex8, N-(azetidin-3-yl)-4-(4-fluoro-3-(1-(4-fluorophenyl)-5-(methylthio)-1H-pyrazole-3-carboxamido)phenoxy)picolinamide]",inhibition at 5 µM,KDR,< 79%
same,inhibition at 5 µM,PIKfyve,< 79%
same,inhibition at 5 µM,SRC,< 79%
same,inhibition at 5 µM,MNK2,80 to 89%
same,inhibition at 5 µM,BLK,< 79%
same,inhibition at 5 µM,TNIK,90 to 94%
same,inhibition at 5 µM,ZAK,< 79%
same,"kinase inhibition, EPH",EPH,D (D=79% and less)
same,inhibition at 5 µM,MAP4K2,80 to 89%
same,inhibition at 5 µM,HCK,< 79%
same,inhibition at 5 µM,p38b,< 79%
same,inhibition at 5 µM,DDR1,< 79%
same,inhibition at 5 µM,SGK2,< 79%
same,inhibition at 5 µM,PDGFRb,< 79%
same,inhibition at 5 µM,Abl2,< 79%
same,inhibition at 5 µM,SGK3,80 to 89%
"Cc1ccc(NC(=O)c2cc(S(C)(=O)=O)n(-c3ccc(F)cc3)n2)cc1-c1cc(OCCO)nc(N2CCOCC2)c1 [Ex9, 1-(4-fluorophenyl)-N-(3-(2-(2-hydroxyethoxy)-6-morpholinopyridin-4-yl)-4-methylphenyl)-5-(methylsulfonyl)-1H-pyrazole-3-carboxamide]",inhibition at 5 µM,KDR,< 79%
same,inhibition at 5 µM,PIKfyve,< 79%
same,inhibition at 5 µM,SRC,< 79%
same,inhibition at 5 µM,MNK2,< 79%
same,inhibition at 5 µM,BLK,< 79%
same,inhibition at 5 µM,TNIK,< 79%
same,inhibition at 5 µM,ZAK,< 79%
same,"kinase inhibition, EPH",EPH,D (D=79% and less)
same,inhibition at 5 µM,MAP4K2,< 79%
same,inhibition at 5 µM,HCK,< 79%
same,inhibition at 5 µM,p38b,80 to 89%
same,inhibition at 5 µM,DDR1,≥ 95%
same,inhibition at 5 µM,SGK2,< 79%
same,inhibition at 5 µM,PDGFRb,< 79%
same,inhibition at 5 µM,Abl2,< 79%
same,inhibition at 5 µM,SGK3,< 79%
"Cc1ccc(NC(=O)c2cc([S+](C)[O-])n(-c3ccc(F)cc3)n2)cc1-c1cc(OCCO)nc(N2CCOCC2)c1 (stereo not shown) [Ex10, 1-(4-fluorophenyl)-N-(3-(2-(2-hydroxyethoxy)-6-morpholinopyridin-4-yl)-4-methylphenyl)-5-(methylsulfinyl)-1H-pyrazole-3-carboxamide]",inhibition at 5 µM,KDR,< 79%
same,inhibition at 5 µM,PIKfyve,< 79%
same,inhibition at 5 µM,SRC,< 79%
same,inhibition at 5 µM,MNK2,< 79%
same,inhibition at 5 µM,BLK,< 79%
same,inhibition at 5 µM,TNIK,< 79%
same,inhibition at 5 µM,ZAK,< 79%
same,"kinase inhibition, EPH",EPH,D (D=79% and less)
same,inhibition at 5 µM,MAP4K2,< 79%
same,inhibition at 5 µM,HCK,< 79%
same,inhibition at 5 µM,p38b,< 79%
same,inhibition at 5 µM,DDR1,≥ 95%
same,inhibition at 5 µM,SGK2,< 79%
same,inhibition at 5 µM,PDGFRb,< 79%
same,inhibition at 5 µM,Abl2,< 79%
same,inhibition at 5 µM,SGK3,< 79%
